According to US9463252B2, “Auristatin drug linker conjugates” (priority 2008, dated 2016):

Key:
[1] = system: HCT-116 (CD70−); experiment: Cytotoxicity of Auristatin-Peptide-h1F6 conjugates, CD70- control cell line; assay type: cell-based
Source text: (§1) The conjugates contain approximately 4 drugs per antibody.

[2] = system: L428; experiment: Cytotoxicity of Auristatin-Peptide-h1F6 conjugates, resazurin assay; assay type: cell-based
Source text: as §1

[3] = system: Caki-1; experiment: as above; assay type: cell-based
Source text: as §1

[4] = system: 786-O; experiment: as above; assay type: cell-based, human; conditions: for IC50 786-0: Table 4
Source text: as §1

[5] = system: Caki-2; experiment: as above; assay type: cell-based
Experimental: as §1
Following the procedure described as Examples 57 and 58, Auristatin-Peptide-h1F6 conjugates were evaluated on CD70^+ cell, such as 786-O, Caki-1, Caki-2, and L428. Conjugates contain approximately 4 drugs per antibody.

[6] = system: UMRC-3; experiment: as above; assay type: cell-based
Source text: as §1

[7] = system: LP-1; experiment: as above; assay type: cell-based, human
Source text: as §1

[8] = system: U251; experiment: as above; assay type: cell-based; conditions: Table 4, ~4 drugs/Ab
Source text: as §1

[9] = Table 5, h1F6 conjugates, ~4 drugs/Ab
[10] = Table 9, h1F6-Drug(4) conjugates, mono- vs dipeptide linker
[11] = Table 4, h1F6 conjugates, ~4 drugs/Ab
[12] = Table 8, h1F6 conjugates, D vs L amino acid in second linker position
[13] = Table 10, h1F6-Drug(4) conjugates, aryl or alkyl maleimides
[14] = Table 7, h1F6 conjugates, AF vs MMAF

Substance | IC50 HCT-116 (CD70−) ([1]; Table 5, ~4 drugs/Ab) | IC50 L428 [2, 9] | IC50 Caki-1 [3, 9] | IC50 786-O [4, 9] | IC50 Caki-2 [5, 9] | further results
AF-Tyrosine-(D)Lysine-diaminoethane-propionyl maleimide [AF-Tyr-(D)Lys] | >1 µg/mL | 0.01 µg/mL | 0.011 µg/mL | 0.009 µg/mL | 0.012 µg/mL | –
AF-Methionine-diaminoethane-propionyl maleimide | – | – | – | – | – | IC50 UMRC-3 [6, 10]: 0.017 µg/mL; IC50 L-428 [2, 10]: 0.003 µg/mL; IC50 Caki-1 [3, 10]: 0.006 µg/mL; IC50 786-O [4, 10]: 0.008 µg/mL; IC50 LP-1 [7, 10]: 0.11 µg/mL
AW-Asparagine-(D)Lysine-diaminoethane-propionyl maleimide [AW-Asn-(D)Lys] | >1 µg/mL | 0.019 µg/mL | 0.015 µg/mL | 0.016 µg/mL | 0.026 µg/mL | –
AF-Lysine-(D)Lysine-diaminoethane-propionyl maleimide [AF-Lys-(D)Lys] | >1 µg/mL | 0.037 µg/mL | 0.008 µg/mL | 0.009 µg/mL | 0.009 µg/mL | –
AF-Homo-β-Phenylalanine-(D)Aspartic Acid-diaminoethane-propionyl maleimide [AF-hPhe-(D)Asp] | >1 µg/mL | 0.029 µg/mL | >1 µg/mL | 0.01 µg/mL | >1 µg/mL | –
AF-AsparticAcid-Valine-Diaminoethane-Propionyl-Maleimide [AF-Asp-Val] | – | – | – | – | – | IC50 HCT-116 (CD70−) ([1]; Table 4, ~4 drugs/Ab): >1 µg/mL; IC50 U251 [8]: 0.407 µg/mL; IC50 UMRC-3 [6, 11]: 0.054 µg/mL; IC50 L428 [2, 11]: 0.018 µg/mL; IC50 Caki-1 [3, 11]: 0.025 µg/mL; IC50 786-0 ([4]; h1F6 conjugates, ~4 drugs/Ab): 0.018 µg/mL; IC50 LP-1 [7, 11]: 0.234 µg/mL
AM-Methionine-(D)Lysine-diaminoethane-propionyl maleimide [AM-Met-(D)Lys] | >1 µg/mL | 1 µg/mL | 0.039 µg/mL | 0.056 µg/mL | 0.251 µg/mL | –
AF-Methionine-(D)Lysine-(D)Lysine-diaminoethane-propionyl maleimide [AF-Met-(D)Lys-(D)Lys] | >1 µg/mL | >1 µg/mL | 0.012 µg/mL | 0.008 µg/mL | 0.025 µg/mL | –
AF-Asparagine-Proline-diaminoethane-propionyl maleimide [AF-Asn-Pro] | >1 µg/mL | 0.023 µg/mL | 0.012 µg/mL | 0.011 µg/mL | 0.032 µg/mL | –
AF-Asparagine-(L)Lysine-diaminoethane-propionyl maleimide [AF-Asn-(L)Lys] | – | – | – | – | – | IC50 UMRC-3 [6, 12]: 0.026 µg/mL; IC50 L-428 [2, 12]: 0.008 µg/mL; IC50 Caki-1 [3, 12]: 0.008 µg/mL; IC50 786-O [4, 12]: 0.009 µg/mL; IC50 LP-1 [7, 12]: 0.501 µg/mL
AF-Tyrosine-Valine-diaminoethane-propionyl-maleimide [AF-Tyr-Val] | – | – | – | – | – | IC50 HCT-116 (CD70−) ([1]; Table 4, ~4 drugs/Ab): >1 µg/mL; IC50 U251 [8]: 0.0468 µg/mL; IC50 UMRC-3 [6, 11]: 0.0195 µg/mL; IC50 L428 [2, 11]: 0.003 µg/mL; IC50 Caki-1 [3, 11]: 0.007 µg/mL; IC50 786-0 ([4]; h1F6 conjugates, ~4 drugs/Ab): 0.0037 µg/mL; IC50 LP-1 [7, 11]: 0.034 µg/mL
AF-Methionine-Proline-diaminoethane-propionyl maleimide [AF-Met-Pro] | >1 µg/mL | 0.008 µg/mL | 0.015 µg/mL | 0.008 µg/mL | 0.025 µg/mL | –
AM-Tyrosine-(D)Aspartic Acid-diaminoethane-propionyl maleimide [AM-Tyr-(D)Asp] | >1 µg/mL | 0.03 µg/mL | 0.023 µg/mL | 0.032 µg/mL | 0.071 µg/mL | –
AW-Asparagine-diaminoethane-propionyl maleimide [AW-Asn] | >1 µg/mL | 0.022 µg/mL | 0.015 µg/mL | 0.018 µg/mL | 0.03 µg/mL | –
AF-Asparagine-Valine-diaminoethane-propionyl-maleimide [AF-Asn-Val] | – | – | – | – | – | IC50 HCT-116 (CD70−) ([1]; Table 4, ~4 drugs/Ab): >1 µg/mL; IC50 U251 [8]: 0.251 µg/mL; IC50 UMRC-3 [6, 11]: 0.0468 µg/mL; IC50 L428 [2, 11]: 0.0117 µg/mL; IC50 Caki-1 [3, 11]: 0.0223 µg/mL; IC50 786-0 ([4]; h1F6 conjugates, ~4 drugs/Ab): 0.0126 µg/mL; IC50 LP-1 [7, 11]: 0.174 µg/mL
AF-Citrulline-(D)Lysine-diaminoethane-propionyl maleimide [AF-Cit-(D)Lys] | >1 µg/mL | 0.047 µg/mL | 0.011 µg/mL | 0.01 µg/mL | 0.016 µg/mL | –
AF-Glutamine-(D)Lysine-diaminoethane-propionyl maleimide [AF-Gln-(D)Lys] | >1 µg/mL | 0.209 µg/mL | 0.011 µg/mL | 0.012 µg/mL | 0.014 µg/mL | –
AF-Methionine-(D)Aspartic Acid-diaminoethane-propionyl maleimide [AF-Met-(D)Asp] | >1 µg/mL | 0.011 µg/mL | 0.01 µg/mL | 0.008 µg/mL | 0.035 µg/mL | –
AM-Asparagine-(D)Lysine-diaminoethane-benzoyl maleimide [AM-Asn-(D)Lys-aryl maleimide] | – | – | – | – | – | IC50 L428 [2, 13]: 0.023 µg/mL; IC50 Caki-1 [3, 13]: 0.01 µg/mL; IC50 786-O [4, 13]: 0.016 µg/mL; IC50 Caki-2 [5, 13]: 0.017 µg/mL
AF-Asparagine-(D)Lysine-(D)Lysine-diaminoethane-propionyl maleimide [AF-Asn-(D)Lys-(D)Lys] | >1 µg/mL | 0.022 µg/mL | 0.01 µg/mL | 0.009 µg/mL | 0.03 µg/mL | –
AF-Asparagine-(D)Aspartic Acid-diaminoethane-propionyl maleimide [AF-Asn-(D)Asp] | >1 µg/mL | 0.014 µg/mL | 0.007 µg/mL | 0.007 µg/mL | 0.071 µg/mL | –
AM-Asparagine-diaminoethane-propionyl maleimide [AM-Asn] | >1 µg/mL | 0.032 µg/mL | 0.031 µg/mL | 0.03 µg/mL | 0.063 µg/mL | –
AF-Methionine-(D)Valine-diaminoethane-propionyl maleimide [AF-Met-(D)Val] | >1 µg/mL | 0.008 µg/mL | 0.006 µg/mL | 0.005 µg/mL | 0.032 µg/mL | –
AW-Methionine-(D)Lysine-diaminoethane-benzoyl maleimide [AW-Met-(D)Lys-aryl-maleimide] | – | – | – | – | – | IC50 L428 [2, 13]: >1 µg/mL; IC50 Caki-1 [3, 13]: 0.015 µg/mL; IC50 786-O [4, 13]: 0.012 µg/mL; IC50 Caki-2 [5, 13]: 0.012 µg/mL
MMAF-Methionine-(D)Lysine-diaminoethane-propionyl maleimide [MMAF-Met-(D)Lys] | – | – | – | – | – | IC50 UMRC-3 [6, 14]: 0.1 µg/mL; IC50 L-428 [2, 14]: 0.123 µg/mL; IC50 Caki-1 [3, 14]: 0.008 µg/mL; IC50 786-O [4, 14]: 0.01 µg/mL; IC50 LP-1 [7, 14]: >1 µg/mL
AF-Isoleucine-Valine-diaminoethane-propionyl-maleimide [AF-Ile-Val] | – | – | – | – | – | IC50 HCT-116 (CD70−) ([1]; Table 4, ~4 drugs/Ab): >1 µg/mL; IC50 U251 [8]: 0.0446 µg/mL; IC50 UMRC-3 [6, 11]: 0.0195 µg/mL; IC50 L428 [2, 11]: 0.0025 µg/mL; IC50 Caki-1 [3, 11]: 0.0037 µg/mL; IC50 786-0 ([4]; h1F6 conjugates, ~4 drugs/Ab): 0.0034 µg/mL; IC50 LP-1 [7, 11]: 0.019 µg/mL
AF-Methionine-(D)Methionine-diaminoethane-propionyl maleimide [AF-Met-(D)Met] | >1 µg/mL | 0.004 µg/mL | 0.005 µg/mL | 0.004 µg/mL | 0.013 µg/mL | –
AF-Methionine-(L)Lysine-diaminoethane-propionyl maleimide [AF-Met-(L)Lys] | – | – | – | – | – | IC50 UMRC-3 [6, 12]: 0.022 µg/mL; IC50 L-428 [2, 12]: 0.003 µg/mL; IC50 Caki-1 [3, 12]: 0.004 µg/mL; IC50 786-O [4, 12]: 0.007 µg/mL; IC50 LP-1 [7, 12]: 0.095 µg/mL
AF-Arginine-(D)Lysine-diaminoethane-propionyl maleimide [AF-Arg-(D)Lys] | >1 µg/mL | 0.047 µg/mL | 0.01 µg/mL | 0.008 µg/mL | 0.008 µg/mL | –
AW-Tyrosine-(D)Aspartic acid-diaminoethane-propionyl maleimide [AW-Tyr-(D)Asp] | >1 µg/mL | 0.021 µg/mL | 0.016 µg/mL | 0.018 µg/mL | 0.033 µg/mL | –
